Assay results: patent US20260132140A1, “IMIDAZOLYL-AMINO-PYRAZINE-CARBONITRILS AS CHK-1 INHIBITORS” (BenevolentAI Bio Limited, priority 2022, published 2026)

Tests used:
RSK2 = target: T1, RSK2 (Homo sapiens, UniProt P51812); test: RSK1-4 kinase assay (Eurofins KinaseProfiler, radiometric): RSK2; format: biochemical; details: approximately ATP Km
T1 construct: purchased Eurofins (KinaseProfiler service)
Source text: (§1) The radiometric kinase activity assays were run at approximately the ATP Km for each kinase and the IC50 data is shown in Table 24.

[1] = target: P-glycoprotein (P-gp, MDR1) (Homo sapiens, UniProt P08183); test: in vitro; details: dog, MDCK-MDR1, pH 7.4
Chain of P-glycoprotein (P-gp, MDR1) (P08183 whole entry): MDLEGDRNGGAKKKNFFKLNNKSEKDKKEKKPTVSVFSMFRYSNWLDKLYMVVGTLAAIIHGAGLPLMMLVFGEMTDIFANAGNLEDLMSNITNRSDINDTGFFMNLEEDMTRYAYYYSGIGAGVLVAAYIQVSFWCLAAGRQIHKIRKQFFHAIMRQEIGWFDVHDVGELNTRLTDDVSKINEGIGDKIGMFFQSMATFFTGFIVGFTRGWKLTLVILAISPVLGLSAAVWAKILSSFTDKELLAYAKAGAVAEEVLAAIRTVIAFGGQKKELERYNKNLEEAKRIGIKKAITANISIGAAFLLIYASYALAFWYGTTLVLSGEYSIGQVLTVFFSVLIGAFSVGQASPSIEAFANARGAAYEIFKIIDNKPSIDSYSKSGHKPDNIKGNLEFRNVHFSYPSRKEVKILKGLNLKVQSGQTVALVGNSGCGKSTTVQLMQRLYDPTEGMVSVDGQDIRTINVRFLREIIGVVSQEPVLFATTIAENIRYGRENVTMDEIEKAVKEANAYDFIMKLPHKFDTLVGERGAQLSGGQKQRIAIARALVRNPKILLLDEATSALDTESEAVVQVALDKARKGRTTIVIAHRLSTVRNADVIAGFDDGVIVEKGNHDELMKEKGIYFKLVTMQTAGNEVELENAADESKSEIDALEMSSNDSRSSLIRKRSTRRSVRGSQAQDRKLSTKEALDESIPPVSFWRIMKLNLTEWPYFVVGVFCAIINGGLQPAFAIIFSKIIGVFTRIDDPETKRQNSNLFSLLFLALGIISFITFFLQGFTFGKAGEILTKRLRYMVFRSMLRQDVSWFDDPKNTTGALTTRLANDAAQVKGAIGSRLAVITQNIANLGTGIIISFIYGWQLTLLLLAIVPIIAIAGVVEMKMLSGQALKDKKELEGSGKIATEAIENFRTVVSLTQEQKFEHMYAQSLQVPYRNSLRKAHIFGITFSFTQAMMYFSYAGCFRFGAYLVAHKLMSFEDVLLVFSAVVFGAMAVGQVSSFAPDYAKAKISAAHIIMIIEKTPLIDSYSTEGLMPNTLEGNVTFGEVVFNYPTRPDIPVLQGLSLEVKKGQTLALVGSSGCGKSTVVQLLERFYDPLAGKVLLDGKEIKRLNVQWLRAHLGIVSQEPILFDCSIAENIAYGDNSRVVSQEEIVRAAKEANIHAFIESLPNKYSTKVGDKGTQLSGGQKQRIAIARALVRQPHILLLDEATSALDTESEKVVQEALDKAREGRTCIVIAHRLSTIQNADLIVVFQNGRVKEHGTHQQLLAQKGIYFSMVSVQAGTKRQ

BCRP = target: T2, BCRP (Homo sapiens, UniProt Q9UNQ0); test: in vitro; details: dog, pH 7.4
T2 sequence (Q9UNQ0 1-655): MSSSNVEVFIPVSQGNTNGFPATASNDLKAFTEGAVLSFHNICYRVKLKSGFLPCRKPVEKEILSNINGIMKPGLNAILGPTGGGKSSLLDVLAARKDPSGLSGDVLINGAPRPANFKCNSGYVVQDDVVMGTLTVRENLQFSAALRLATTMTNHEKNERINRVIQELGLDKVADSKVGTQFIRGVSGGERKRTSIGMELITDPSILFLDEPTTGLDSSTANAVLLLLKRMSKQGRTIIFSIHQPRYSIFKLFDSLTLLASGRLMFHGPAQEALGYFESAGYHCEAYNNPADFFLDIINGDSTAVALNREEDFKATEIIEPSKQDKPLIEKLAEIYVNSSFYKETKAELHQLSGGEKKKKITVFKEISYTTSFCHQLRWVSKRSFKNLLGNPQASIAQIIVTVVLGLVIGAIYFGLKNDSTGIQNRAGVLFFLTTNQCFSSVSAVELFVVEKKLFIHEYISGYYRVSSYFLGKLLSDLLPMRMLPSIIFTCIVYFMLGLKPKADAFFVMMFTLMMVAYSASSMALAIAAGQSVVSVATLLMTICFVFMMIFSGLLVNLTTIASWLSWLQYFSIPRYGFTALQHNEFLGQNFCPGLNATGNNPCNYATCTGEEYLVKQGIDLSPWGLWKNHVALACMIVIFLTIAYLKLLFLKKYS

RSK4 = target: T3, RSK4 (Homo sapiens, UniProt Q9UK32); test: RSK1-4 kinase assay (Eurofins KinaseProfiler, radiometric): RSK4; format: biochemical; details: approximately ATP Km
T3 construct: purchased Eurofins (KinaseProfiler service)
T3 sequence (Q9UK32 whole entry): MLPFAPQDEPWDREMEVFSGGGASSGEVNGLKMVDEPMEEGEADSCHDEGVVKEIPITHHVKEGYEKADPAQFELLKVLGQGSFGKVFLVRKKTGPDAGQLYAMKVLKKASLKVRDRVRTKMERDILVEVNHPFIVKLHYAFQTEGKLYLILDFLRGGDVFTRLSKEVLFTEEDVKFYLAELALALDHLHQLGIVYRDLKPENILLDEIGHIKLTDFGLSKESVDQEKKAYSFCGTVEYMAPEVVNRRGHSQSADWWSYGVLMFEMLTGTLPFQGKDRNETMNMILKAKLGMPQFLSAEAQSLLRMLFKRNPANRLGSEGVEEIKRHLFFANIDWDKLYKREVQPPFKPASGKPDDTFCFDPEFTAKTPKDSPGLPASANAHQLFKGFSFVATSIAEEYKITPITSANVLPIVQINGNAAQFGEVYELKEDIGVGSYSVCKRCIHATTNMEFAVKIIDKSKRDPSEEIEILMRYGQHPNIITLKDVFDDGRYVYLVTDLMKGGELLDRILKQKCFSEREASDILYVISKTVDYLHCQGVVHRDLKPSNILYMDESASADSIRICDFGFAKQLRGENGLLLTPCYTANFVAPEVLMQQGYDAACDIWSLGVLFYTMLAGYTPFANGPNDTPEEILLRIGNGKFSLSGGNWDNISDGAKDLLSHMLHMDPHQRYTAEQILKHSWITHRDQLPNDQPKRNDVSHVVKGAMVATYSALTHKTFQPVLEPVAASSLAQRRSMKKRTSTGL
Source text: as §1

in vitro = details: dog, MDCK, pH 7.4
RSK1 = target: T4, RSK1 (Homo sapiens, UniProt Q15418); test: RSK1-4 kinase assay (Eurofins KinaseProfiler, radiometric): RSK1; format: biochemical; details: approximately ATP Km
T4 construct: purchased Eurofins (KinaseProfiler service)
T4 sequence (Q15418 whole entry): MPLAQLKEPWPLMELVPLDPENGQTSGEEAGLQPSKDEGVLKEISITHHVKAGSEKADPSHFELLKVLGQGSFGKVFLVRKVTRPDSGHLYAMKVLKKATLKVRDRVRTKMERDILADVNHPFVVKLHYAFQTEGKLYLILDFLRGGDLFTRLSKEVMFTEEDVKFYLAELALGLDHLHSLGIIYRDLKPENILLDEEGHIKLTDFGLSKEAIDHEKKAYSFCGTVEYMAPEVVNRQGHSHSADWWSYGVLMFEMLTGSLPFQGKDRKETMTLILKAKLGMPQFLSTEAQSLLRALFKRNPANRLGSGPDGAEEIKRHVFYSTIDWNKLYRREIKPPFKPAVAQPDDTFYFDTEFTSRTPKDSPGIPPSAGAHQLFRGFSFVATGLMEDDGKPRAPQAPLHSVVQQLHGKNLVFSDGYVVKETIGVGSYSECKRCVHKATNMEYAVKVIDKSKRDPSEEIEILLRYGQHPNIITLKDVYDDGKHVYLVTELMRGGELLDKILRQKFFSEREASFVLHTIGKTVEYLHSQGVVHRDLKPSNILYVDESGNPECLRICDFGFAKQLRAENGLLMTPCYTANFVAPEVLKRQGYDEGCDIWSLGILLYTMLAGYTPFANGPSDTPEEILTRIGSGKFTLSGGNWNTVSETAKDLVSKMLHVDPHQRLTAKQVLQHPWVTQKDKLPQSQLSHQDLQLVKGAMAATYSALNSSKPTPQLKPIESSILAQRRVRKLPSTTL
Source text: as §1

RSK3 = target: T5, RSK3 (Homo sapiens, UniProt Q15349); test: RSK1-4 kinase assay (Eurofins KinaseProfiler, radiometric): RSK3; format: biochemical; details: approximately ATP Km
T5 construct: purchased Eurofins (KinaseProfiler service)
T5 sequence (Q15349 whole entry): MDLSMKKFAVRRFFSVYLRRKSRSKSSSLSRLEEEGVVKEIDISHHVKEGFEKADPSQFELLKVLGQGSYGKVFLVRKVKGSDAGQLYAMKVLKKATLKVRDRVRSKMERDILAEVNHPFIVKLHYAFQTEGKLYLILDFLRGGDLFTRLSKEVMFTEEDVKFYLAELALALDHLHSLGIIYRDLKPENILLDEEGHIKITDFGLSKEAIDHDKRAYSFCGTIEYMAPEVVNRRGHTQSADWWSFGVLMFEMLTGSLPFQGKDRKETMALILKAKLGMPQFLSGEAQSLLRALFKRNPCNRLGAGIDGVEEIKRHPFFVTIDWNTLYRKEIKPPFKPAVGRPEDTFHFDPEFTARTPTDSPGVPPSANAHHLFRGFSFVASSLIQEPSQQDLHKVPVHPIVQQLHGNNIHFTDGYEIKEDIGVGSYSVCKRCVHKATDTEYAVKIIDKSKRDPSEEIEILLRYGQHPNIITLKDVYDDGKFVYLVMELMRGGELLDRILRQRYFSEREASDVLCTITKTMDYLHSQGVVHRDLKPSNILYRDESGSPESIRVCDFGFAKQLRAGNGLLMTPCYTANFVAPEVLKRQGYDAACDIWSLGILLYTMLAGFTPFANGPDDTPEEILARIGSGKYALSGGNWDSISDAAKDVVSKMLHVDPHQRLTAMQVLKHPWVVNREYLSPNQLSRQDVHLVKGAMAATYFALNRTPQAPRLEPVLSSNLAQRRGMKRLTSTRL
Source text: as §1

[2] = Determination of CNS penetration in vivo, unbound brain to plasma ratio (Kpuu); details: male, Sprague Dawley, rat, iv, 1 mg/kg
[3] = system: pChk1(Ser296) in SW620 cells; test: pChk1(Ser296) sandwich ELISA, cell-based on-target kinase activity; details: Homo sapiens, SW-620, neocarzinostatin 7.5 μM, 2 hours, read-out: SW620 pIC50 (converted)
Procedure: ELISA assays were performed as per the manufacturer's protocol. […] Selected compounds of the invention were tested as a 8-point concentration response up to a maximum concentration of either 1 μM, 3 μM or 10 μM. The percent (%) effect i.e. inhibition at each concentration of compound was calculated based on, and relative to, the amount of inhibition produced in the vehicle control and inhibited control wells contained within each plate.

GBM LN18 cells = test: In vitro cell viability assay (Cell Titre Glo, 72 hours); format: cell-based; details: Homo sapiens, LN-18, read-out: LN18 pIC50 (converted)
Summary of the method: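 LN18 glioblastoma cells were exposed to compound for 72 h in a 10-point concentration series up to 10 μM. Viability was read as cellular ATP by CellTiter-Glo luminescence, and % inhibition was calculated against the vehicle and inhibited control wells on each plate.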

[4] = system: 373 human wild-type kinases; test: Kinome selectivity, Eurofins KinaseProfiler kinase screen; format: biochemical; details: panel of 373 human wild-type kinases, approximately ATP Km, top concentration 10 μM
Source text: The radiometric kinase activity assays were run at approximately the ATP Km for each kinase.

human Chk2 kinase = human Chk2 kinase (Homo sapiens, UniProt O96017); test: biochemical
Chain of human Chk2 kinase (O96017 whole entry): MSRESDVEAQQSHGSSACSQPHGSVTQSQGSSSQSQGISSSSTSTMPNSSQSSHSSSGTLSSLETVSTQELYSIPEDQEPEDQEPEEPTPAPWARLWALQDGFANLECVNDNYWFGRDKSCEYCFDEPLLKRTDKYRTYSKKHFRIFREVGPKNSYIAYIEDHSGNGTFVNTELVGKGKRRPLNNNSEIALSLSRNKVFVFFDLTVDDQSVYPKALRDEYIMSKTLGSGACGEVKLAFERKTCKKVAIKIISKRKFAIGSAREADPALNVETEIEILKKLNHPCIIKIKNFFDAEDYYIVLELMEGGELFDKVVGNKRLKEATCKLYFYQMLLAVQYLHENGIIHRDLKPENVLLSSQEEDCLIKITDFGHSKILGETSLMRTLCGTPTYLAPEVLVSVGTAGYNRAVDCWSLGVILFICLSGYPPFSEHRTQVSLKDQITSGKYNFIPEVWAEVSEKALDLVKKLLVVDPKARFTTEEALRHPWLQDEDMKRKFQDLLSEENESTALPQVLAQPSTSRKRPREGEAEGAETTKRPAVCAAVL

human Chk1 kinase = target: T6, human Chk1 kinase (Homo sapiens, UniProt O14757); test: biochemical
T6 sequence (O14757 1-476): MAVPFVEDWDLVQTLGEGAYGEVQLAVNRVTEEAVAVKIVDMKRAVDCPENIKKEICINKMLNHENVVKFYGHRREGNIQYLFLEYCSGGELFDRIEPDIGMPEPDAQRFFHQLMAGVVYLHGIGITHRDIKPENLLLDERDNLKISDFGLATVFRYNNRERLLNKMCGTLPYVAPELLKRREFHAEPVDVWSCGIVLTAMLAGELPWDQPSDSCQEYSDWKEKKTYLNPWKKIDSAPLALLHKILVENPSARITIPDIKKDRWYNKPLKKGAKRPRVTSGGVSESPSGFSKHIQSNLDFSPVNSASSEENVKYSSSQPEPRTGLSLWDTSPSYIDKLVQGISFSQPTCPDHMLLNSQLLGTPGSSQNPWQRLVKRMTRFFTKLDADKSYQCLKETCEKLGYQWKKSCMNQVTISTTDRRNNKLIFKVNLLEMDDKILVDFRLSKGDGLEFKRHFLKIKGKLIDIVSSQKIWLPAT

T1 sequence (P51812 whole entry): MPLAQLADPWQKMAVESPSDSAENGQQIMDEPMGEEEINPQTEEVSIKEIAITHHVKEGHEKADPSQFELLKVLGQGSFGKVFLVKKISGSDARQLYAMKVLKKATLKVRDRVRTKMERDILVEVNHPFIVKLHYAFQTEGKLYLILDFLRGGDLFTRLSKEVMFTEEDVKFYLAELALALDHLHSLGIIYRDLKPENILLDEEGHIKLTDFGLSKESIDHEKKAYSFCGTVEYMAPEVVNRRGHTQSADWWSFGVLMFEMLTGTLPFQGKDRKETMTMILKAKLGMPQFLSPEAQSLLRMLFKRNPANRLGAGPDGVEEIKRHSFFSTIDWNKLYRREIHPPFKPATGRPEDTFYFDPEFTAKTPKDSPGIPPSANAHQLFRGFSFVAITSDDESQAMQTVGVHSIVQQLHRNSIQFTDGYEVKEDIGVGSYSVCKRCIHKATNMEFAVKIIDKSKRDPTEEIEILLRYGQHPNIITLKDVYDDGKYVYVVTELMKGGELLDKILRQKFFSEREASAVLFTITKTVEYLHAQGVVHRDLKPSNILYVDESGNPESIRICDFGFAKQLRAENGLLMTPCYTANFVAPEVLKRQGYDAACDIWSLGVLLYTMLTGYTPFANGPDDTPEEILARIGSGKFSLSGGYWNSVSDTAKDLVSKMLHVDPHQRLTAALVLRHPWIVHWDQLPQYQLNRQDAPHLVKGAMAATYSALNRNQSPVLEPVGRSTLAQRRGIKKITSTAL

Structure (SMILES)	IC50 (RSK2)	efflux ratio at 60 min, 1 μM [1]	efflux ratio at 60 min, 1 μM (BCRP)	IC50 (RSK4)	Papp A→B at 60 min, 1 μM (in vitro)	IC50 (RSK1)	IC50 (RSK3)	Kp uu at 0.25 h [2]	IC50 [3]	IC50 (GBM LN18 cells)	Number of 372 kinases inhibited relative to Chk1 IC50 Within 10-fold [4]	Number of 372 kinases inhibited relative to Chk1 IC50 Within 100-fold [4]	IC50 (human Chk2 kinase)	IC50 (human Chk1 kinase)
COc1cc(C2(F)CCN(C)CC2)ccc1-c1cc(Nc2cnc(C#N)cn2)n[nH]1 [Comparator Ex. 4, 5-((5-(4-(4-Fluoro-1-methylpiperidin-4-yl)-2-methoxyphenyl)-1H-pyrazol-3-yl)amino)pyrazine-2-carbonitrile, reference compound]	59 nM	16	12	58 nM	19 ×10⁻⁶ cm/s	329 nM	35 nM							
CN(C)[C@@H]1CCN(c2ccc(-n3cnc(Nc4cnc(C#N)cn4)c3)nc2)C1 [Example 50, (R)-5-((1-(5-(3-(Dimethylamino)pyrrolidin-1-yl)pyridin-2-yl)-1H-imidazol-4-yl)amino)pyrazine-2-carbonitrile]	6670 nM			3140 nM		4470 nM	1020 nM	0.5	< 1000 nM	< 1000 nM				
C[C@@H]1C[C@@H](N2CCC2)CN1c1ccc(-n2cnc(Nc3cnc(C#N)cn3)c2)cc1 [Example 98, 5-((1-(4-((2R,4R)-4-(Azetidin-1-yl)-2-methylpyrrolidin-1-yl)phenyl)-1H-imidazol-4-yl)amino)pyrazine-2-carbonitrile]	786 nM			2470 nM		3550 nM	651 nM	0.8	< 1000 nM	< 1000 nM				
CN1CCN(c2ccc(-n3cnc(Nc4cnc(C#N)cn4)c3)cc2)CC1 [Example 143, 5-((1-(4-(4-Methylpiperazin-1-yl)phenyl)-1H-imidazol-4-yl)amino)pyrazine-2-carbonitrile]	3040 nM			> 10000 nM		9450 nM	2070 nM	0.4			3	10	10000 to 100000 nM	10 to 31.6 nM
